Peptide text beside a SMILES is read from it.
Legend:
V. vulnificus [1] = assay: Membrane perturbation, NPN uptake; assay type: cell-based, Vibrio vulnificus; details: 1×10^6 CFU/ml, 30 minutes, 40 μmol/L NPN; kanamycin: slight increase only
Procedure: We used previously reported methods for the membrane perturbation assay. Briefly, a single colony of V. vulnificus was cultured in TSB medium for 480 minutes at 28°C, and the adjusted culture (1×10^6 CFU/ml) was aliquoted into different tubes with or without TP4 or TP3. After incubating the cells for 30 minutes, we added 40 μmol/L 1-N-phenylnaphthylamine (NPN) and continued to incubate the cells. Tubes containing PBS with NPN and bacterial cells with NPN served as controls. The NPN fluorescence intensity was detected using a fluorescence ELISA reader. All experiments were performed in triplicate, and the results are expressed as means with standard errors (SE).

V. vulnificus [2] = assay: Tilapia survival, re-challenge of co-treatment survivors with V. vulnificus; assay type: in vivo, tilapia (Oreochromis spp.); details: survivors of 20 μg/fish co-treatment, followed seven days
Source text: (§1) We obtained tilapia (Oreochromis spp.) from a commercial aquaculture company. The fish body lengths were 4.0±0.6 cm, and body weights were 3.1±0.3 g. The tilapia were maintained in a 2000 liter indoor aquarium at the Marine Research Station, Ilan, Taiwan. To study the efficacy with which TP3 and TP4 protect tilapia against V. vulnificus, we injected the bacteria into the abdominal cavities (peritoneum) of the tilapia using a syringe (29 Gx1/2, Terumo Medical, Elkton, MD, USA); control tilapia were injected with PBS-buffered saline. For the first trial in each group, we used 15 tilapia: (a) group 1 was injected with V. vulnificus (2×10^5 CFU/fish) only; (b) group 2 was injected with PBS only; and (c) group 3 was injected with bacterial cells (2×10^5 CFU/fish) combined with a mixture containing both TP3 and TP4 peptides (at 0.1, 1, 10, or 20 μg/fish) that had been incubated for 60 minutes at 28°C. Next, at 168 hours after the first injection, the tilapia that survived the first co-treatment were again injected with V. vulnificus (2×10^5 CFU/fish). For this second challenge, we chose tilapia with similar body weights and ages that had not been previously treated with V. vulnificus, TP3 or TP4 for the V. vulnificus-only group (control group), and we recorded the survival rate over seven days. For the third trial, each group contained 15 tilapia, each of which was injected with 20, 30, or 40 μg of TP3 or TP4 followed by V. vulnificus (2×10^5 CFU/fish) after 0.5, 1, or 2 hours. The survival rate was recorded after seven days. For the fourth trial, each group contained 15 tilapia, each of which was first injected with V. vulnificus (2×10^5 CFU/fish) and then with 20, 30, or 40 μg of TP3 or TP4 after 0.5, 1, or 2 hours; the survival rate was recorded over seven days. Each experimental group consisted of 15 fish per treatment and three replicates (triplicate groups of 15 fish per treatment). We performed multiple group comparisons by analysis of variance (ANOVA) using SPSS software, and pairwise comparisons of groups were performed using a t-test. Significant differences were indicated as *P<0.05 and **P<0.01.
The antimicrobial activities of TP3 and TP4 peptides were analyzed in tilapia infected with lethal amounts of bacteria. Different amounts of V. vulnificus were injected into the abdominal cavities of the fish, and survival rates were recorded as cumulative percentages (S1 Fig). To determine whether TP3 and TP4 had any toxic effects on the tilapia, we injected different doses of TP3 and TP4 (0.1, 1, 10, 20, 30, 40, or 50 μg/fish) into the abdominal cavity and recorded the cumulative survival percentage of the fish (S2 Fig). We also co-treated tilapia with different doses (0.1, 1, 10, 20 μg/fish) of TP3 or TP4 combined with 2x10^4 CFU of V. vulnificus to evaluate tilapia survival following treatment. […] After 14, 21, or 28 days following the first co-treatment with TP3, the tilapia that survived in the 20 μg/fish TP3 experimental group were injected with a second dose of 2x10^4 CFU of V. vulnificus, and the survival rates were measured for another seven days. […] In the co-treatment experiments, at 14, 21, or 28 days after the first co-treatment with TP4, the surviving tilapia in the 20 μg/fish TP4 experimental group received a second injection of 2x10^4 CFU of V. vulnificus, and the survival rates were measured for another seven days.

V. vulnificus [3] = assay: Tilapia survival, peptide injected after V. vulnificus infection (post-treatment); assay type: in vivo, tilapia (Oreochromis spp.); details: seven days
Source text: as §1

[4] = test system: IL-1β, IL-6, IL-8, Mcp-8, β-defensin; assay: qPCR of immune-related gene expression in tilapia liver and spleen; assay type: in vivo, tilapia (Oreochromis spp.); details: in words; for expression of immune-related genes IL-1β, IL-6, IL-8 and MCP-8: co-treatment or peptide treatment alone; for expression of TP2, TP3, TP4 or β-defensin antimicrobial peptide genes in liver: peptide alone or co-treatment, 3 hours after treatment
Procedure: Total RNA was isolated from the tilapia by peptide treatment before, concurrent with and after infection as described above. The groups included one that was only injected with V. vulnificus (2×10^5 CFU/fish) and one that was only injected with peptides (20 μg/fish). Samples were collected at 3, 6, 12, 24, and 48 hours after treatment to extract RNA, and the levels of tilapia total RNA obtained from the liver and spleen were determined with comparative real-time qRT-PCR analysis of all experimental groups. Real-time qRT-PCR was used to detect the levels of IL-1β (GenBank accession no. DQ061114.1), IL-6 (GenBank accession no. XM_005478656), IL-8 (GenBank accession no. NM001279706), Mcp-8 (GenBank accession no. XM_005478749) and β-defensin (GenBank accession no. KF294753). mRNA was isolated and transcribed into complementary first strands (c) according to previously published methods for real-time comparative qPCR to obtain DNA and detect the relative expression levels of each gene. All samples were examined in triplicate using a sample size of five tilapia. The reactions used to analyze gene expression consisted of 0.05 μg of total RNA. Comparative qRT-PCR Mastermix for the SYBR Green kit (Applied Biosystems, Perkin-Elmer) was used for quantification. The total reaction volume was 20 μl; the reactions were run in 96-well plates; and the program consisted of 40 cycles of 3 seconds at 95°C and 20 seconds at 60°C. We added a dissociation thermal start temperature of […] to each experiment to analyze the melting peaks of the generated PCR products. The data from each experiment were expressed as a ratio of the specific target gene expression/β-actin RNA expression. We used t-tests to compare groups, and multiple group comparisons were tested by ANOVA in SPSS software. Differences were defined as significant at P<0.05 (*), <0.01 (**), and <0.001 (***).

[5] = peptide 20 μg/fish 0.5 hours after V. vulnificus
[6] = peptide 20 μg/fish 1 hour after V. vulnificus
[7] = peptide 20 μg/fish 2 hours after V. vulnificus
[8] = peptide 30 μg/fish 0.5 hours after V. vulnificus
[9] = peptide 30 μg/fish 1 hour after V. vulnificus
[10] = peptide 30 μg/fish 2 hours after V. vulnificus
[11] = peptide 40 μg/fish 0.5 hours after V. vulnificus
[12] = peptide 40 μg/fish 1 hour after V. vulnificus
[13] = peptide 40 μg/fish 2 hours after V. vulnificus

| Structure (SMILES) | concentration that increased NPN fluorescence (V. vulnificus [1]) | survival rate after second injection of V. vulnificus (V. vulnificus [2]; re-challenged after 14 days) | survival rate after second injection of V. vulnificus (V. vulnificus [2]; re-challenged after 21 days) | survival rate after second injection of V. vulnificus (V. vulnificus [2]; re-challenged after 28 days) | survival rate (V. vulnificus [3]; [5]) | survival rate (V. vulnificus [3]; [6]) | survival rate (V. vulnificus [3]; [7]) | survival rate (V. vulnificus [3]; [8]) | survival rate (V. vulnificus [3]; [9]) | survival rate (V. vulnificus [3]; [10]) | survival rate (V. vulnificus [3]; [11]) | survival rate (V. vulnificus [3]; [12]) | survival rate (V. vulnificus [3]; [13]) | expression of immune-related genes IL-1β, IL-6, IL-8 and MCP-8 [4] | IL-1β, IL-6, IL-8 and Mcp-8 expression in spleen ([4]; peptide alone or co-injected with V. vulnificus, 12 hours after treatment) | expression of TP2, TP3, TP4 or β-defensin antimicrobial peptide genes in liver [4] | IL-1β, IL-6, IL-8, Mcp-8 and β-defensin gene expression in liver ([4]; pre-treatment and post-treatment groups, three hours after infection with V. vulnificus) | IL-1β, IL-6, IL-8 and β-defensin gene expression in spleen ([4]; pre-treatment and post-treatment, three hours after infection) |
| --- | --- | --- | --- | --- | --- | --- | --- | --- | --- | --- | --- | --- | --- | --- | --- | --- | --- | --- |
| CC[C@H](C)[C@H](NC(=O)[C@H](C)NC(=O)[C@H](CCCCN)NC(=O)CNC(=O)[C@H](C)NC(=O)[C@H](CO)NC(=O)[C@H](Cc1ccccc1)NC(=O)[C@H](CC(C)C)NC(=O)CNC(=O)CNC(=O)[C@@H](NC(=O)[C@@H](NC(=O)[C@H](Cc1c[nH]cn1)NC(=O)[C@H](Cc1c[nH]cn1)NC(=O)[C@@H](NC(=O)[C@@H](N)Cc1ccccc1)[C@@H](C)CC)[C@@H](C)CC)[C@@H](C)CC)C(=O)N[C@@H](Cc1c[nH]cn1)C(=O)N[C@@H](CCCNC(=N)N)C(=O)N[C@@H](CC(C)C)C(=O)N[C@H](C(=O)N[C@@H](CCCNC(=N)N)C(=O)N[C@@H](CCCNC(=N)N)C(=O)N[C@@H](CCCNC(=N)N)C(=O)N[C@@H](CCCNC(=N)N)C(=O)N[C@@H](CCCNC(=N)N)C(=O)O)[C@@H](C)CC [TP4, tilapia piscidin 4] (H-FIHHIIGGLFSAGKAIHRLIRRRRR-OH) | 8 µg/mL | 17.8% | 37.8% | 42.2% | 48.9% | 22.2% | 4% | 40% | 20% | 0% | 2.2% | 4.4% | 6.7% | down-regulation | lower | down-regulated |  |  |
| CC[C@H](C)[C@H](NC(=O)[C@H](CC(C)C)NC(=O)[C@H](CO)NC(=O)[C@H](Cc1c[nH]cn1)NC(=O)[C@@H](NC(=O)[C@H](Cc1c[nH]cn1)NC(=O)[C@H](CCCCN)NC(=O)CNC(=O)[C@@H](NC(=O)[C@H](CO)NC(=O)[C@H](Cc1ccccc1)NC(=O)[C@H](CC(C)C)NC(=O)CNC(=O)CNC(=O)[C@@H](NC(=O)[C@@H](NC(=O)[C@H](Cc1c[nH]cn1)NC(=O)[C@H](Cc1c[nH]cn1)NC(=O)[C@@H](NC(=O)[C@@H](N)Cc1ccccc1)[C@@H](C)CC)[C@@H](C)CC)[C@@H](C)CC)C(C)C)[C@@H](C)CC)C(=O)N[C@@H](Cc1c[nH]cn1)C(=O)NCC(=O)N[C@@H](Cc1c[nH]cn1)C(=O)O [TP3, tilapia piscidin 3] (H-FIHHIIGGLFSVGKHIHSLIHGH-OH) | 60 µg/mL | 17.8% | 26.7% | 35.6% | 33.3% | 20% | 0% | 33.3% | 15.5% | 4.5% | 24.4% | 8.9% | 0% | down-regulation |  | down-regulated | significantly higher levels | significant increase |

— paper PMC5234776, “Study of the Antimicrobial Activity of Tilapia Piscidin 3 (TP3) and TP4 and Their Effects on Immune Functions in Hybrid Tilapia (Oreochromis spp.)” (PLoS ONE, 2017)
